# Target: human RORgammaT-Ligand Binding Domain (LBD) (Homo sapiens (Human), UniProt P51449)
# Experiment: RORγ-Ligand Binding Domain TR-FRET Assay (co-activator peptide SRC1_2 recruitment)
# Type: biochemical
# Details: HIS-tagged RORγ-LBD 3 nM, biotinylated SRC1 LXXLL peptide 100 nM, incubated overnight at 4° C., 665 nm/615 nm ratio
# Source text: Activation of RORgammaT activity can be measured using, e.g., a biochemical TR-FRET assay. In such an assay, interaction of cofactor-derived peptides with human RORgammaT-Ligand Binding Domain (LBD) can be measured.
# To identify novel antagonists of RORgammaT, an assay was developed which employs the interaction of RORgammaT with its co-activator peptide SRC1_2. […] The RORγ-Ligand Binding Domain TR-FRET Assay was run according to the following protocol.
# HIS-tagged RORγ-LBD protein was recombinantly expressed in Escherichia coli. The RORγ-LBD protein was purified by Ni^2+-affinity resin. Purified protein was then diluted in assay buffer (50 mM Tris pH 7.0, 50 mM KCl, 1 mM EDTA, 0.1 mM DTT, 100 μg/mL bovine serum albumin, delipidated) to obtain a RORγ-LBD final concentration of 3 nM.
# Compounds to be tested were injected to the 384-well assay plate using Acoustic Droplet Ejection technology by Echo 550 liquid handler (Labcyte, CA).
# Sequence of human RORgammaT-Ligand Binding Domain (LBD) (P51449 269-508): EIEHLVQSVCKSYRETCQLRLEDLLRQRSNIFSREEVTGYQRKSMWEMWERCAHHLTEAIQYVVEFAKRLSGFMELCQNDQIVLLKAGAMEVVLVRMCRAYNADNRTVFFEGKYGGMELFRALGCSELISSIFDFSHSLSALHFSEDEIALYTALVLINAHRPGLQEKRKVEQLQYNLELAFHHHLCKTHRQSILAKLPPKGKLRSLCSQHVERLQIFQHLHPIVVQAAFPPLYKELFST
row,Compound,IC50 [nM]
1,"Cc1ccc(S(=O)(=O)N2C[C@H]([C@@H]3C[C@@H]3C(=O)O)Oc3ccc(NC(=O)OC(C)(C)C(F)(F)F)cc32)cc1 (single isomer, unassigned) [Example 22F, (1S,2S or 1R,2R or 1S,2R or 1R,2S)-2-((S)-4-tosyl-6-((((1,1,1-trifluoro-2-methylpropan-2-yl)oxy)carbonyl)amino)-3,4-dihydro-2H-benzo[b][1,4]oxazin-2-yl)cylcopropanecarboxylic acid]",75.7
2,"CC[C@@H](C[C@H]1CN(S(=O)(=O)c2cn(CC)nc2OCCO)c2cc(NC(=O)OC(C)(C)C(F)(F)F)ccc2O1)C(=O)O (single isomer, unassigned) [Example 10N, (R or S)-2-(((S)-4-((1-ethyl-3-(2-hydroxyethoxy)-1H-pyrazol-4-yl)sulfonyl)-6-((((1,1,1-trifluoro-2-methylpropan-2-yl)oxy)carbonyl)amino)-3,4-dihydro-2H-benzo[b][1,4]oxazin-2-yl)methyl)butanoic acid]",67.2
3,"CC(C)(OC(=O)Nc1ccc2c(c1)N(S(=O)(=O)c1ccc(Cl)c(Cl)c1)C[C@H](CCC(=O)O)O2)C(F)(F)F [Example 6AH, (S)-3-(4-((3,4-dichlorophenyl)sulfonyl)-6-((((1,1,1-trifluoro-2-methylpropan-2-yl)oxy)carbonyl)amino)-3,4-dihydro-2H-benzo[b][1,4]oxazin-2-yl)propanoic acid]",8.84
4,"C[C@H](C[C@H]1CN(S(=O)(=O)c2ccnc(C(F)(F)F)c2)c2cc(NC(=O)OC(C)(C)C(F)(F)F)ccc2O1)C(=O)O (single isomer, unassigned) [Example 6CZ, (R or S)-2-methyl-3-((S)-6-((((1,1,1-trifluoro-2-methylpropan-2-yl)oxy)carbonyl)amino)-4-((2-(trifluoromethyl)pyridin-4-yl)sulfonyl)-3,4-dihydro-2H-benzo[b][1,4]oxazin-2-yl)propanoic acid]",15.3
5,"Cc1ccc(S(=O)(=O)N2C[C@H](CCC(=O)O)Oc3ccc(NC(=O)OC(C)(C)C(F)(F)F)cc32)cc1Cl [Example 6AJ, (S)-3-(4-((3-chloro-4-methylphenyl)sulfonyl)-6-((((1,1,1-trifluoro-2-methylpropan-2-yl)oxy)carbonyl)amino)-3,4-dihydro-2H-benzo[b][1,4]oxazin-2-yl)propanoic acid]",14
6,"Cc1cc(S(=O)(=O)N2C[C@H](C[C@H](C(=O)O)C3CC3)Oc3ccc(NC(=O)OC(C)(C)C(F)(F)F)cc32)ccc1F (single isomer, unassigned) [Example 10X, (R or S)-2-cyclopropyl-3-((S)-4-((4-fluoro-3-methylphenyl)sulfonyl)-6-((((1,1,1-trifluoro-2-methylpropan-2-yl)oxy)carbonyl)amino)-3,4-dihydro-2H-benzo[b][1,4]oxazin-2-yl)propanoic acid]",32.8
7,"Cc1ccc(S(=O)(=O)N2C[C@H]([C@@H]3C[C@H]3C(=O)O)Oc3ccc(NC(=O)OC(C)(C)C(F)(F)F)cc32)cc1 (single isomer, unassigned) [Example 22H, (1S,2S or 1R,2R or 1S,2R or 1R,2S)-2-((S)-4-tosyl-6-((((1,1,1-trifluoro-2-methylpropan-2-yl)oxy)carbonyl)amino)-3,4-dihydro-2H-benzo[b][1,4]oxazin-2-yl)cyclopropanecarboxylic acid]",141
8,"C[C@@H](C[C@H]1CN(S(=O)(=O)c2cccc(OC(F)F)c2)c2cc(NC(=O)OC(C)(C)C(F)(F)F)ccc2O1)C(=O)O (single isomer, unassigned) [Example 6Co, (S or R)-3-((S)-4-((3-(difluoromethoxy)phenyl)sulfonyl)-6-((((1,1,1-trifluoro-2-methylpropan-2-yl)oxy)carbonyl)amino)-3,4-dihydro-2H-benzo[b][1,4]oxazin-2-yl)-2-methylpropanoic acid]",8.38
9,"CC(C)(OC(=O)Nc1ccc2c(c1)N(S(=O)(=O)c1cccc(C(F)(F)F)c1)C[C@H](CC(O)C(=O)O)O2)C(F)(F)F (mixture of isomers) [Example 15, (R and S)-2-hydroxy-3-((S)-6-((((1,1,1-trifluoro-2-methylpropan-2-yl)oxy)carbonyl)amino)-4-((3-(trifluoromethyl)phenyl)sulfonyl)-3,4-dihydro-2H-benzo[b][1,4]oxazin-2-yl)propanoic acid]",18.1
10,"COc1cc(S(=O)(=O)N2c3cc(NC(=O)OC(C)(C)C(F)(F)F)ccc3O[C@@H](CC(C)(C)C(=O)O)[C@H]2C)ccc1F [Example 27B, 3-[(2S,3R)-4-[(4-fluoro-3-methoxyphenyl)sulfonyl]-3-methyl-6-{[(2,2,2-trifluoro-1,1-dimethylethoxy)carbonyl]ami-no}-3,4-dihydro-2H-1,4-benzoxazin-2-yl]-2,2-dimethylpropanoic acid]",17.5
11,"CCOc1nn(CC)cc1S(=O)(=O)N1C[C@H](CCC(=O)O)Oc2c(F)cc(NC(=O)OC(C)(C)C(F)(F)F)cc21 [Example 29D, 3-[(2S)-4-[(3-ethoxy-1-ethyl-1H-pyrazol-4-yl)sulfonyl]-8-fluoro-6-{[(2,2,2-trifluoro-1,1-dimethylethoxy)carbonyl]ami-no}-3,4-dihydro-2H-1,4-benzoxazin-2-yl]propanoic acid]",7.92
12,"CC(C)(OC(=O)Nc1ccc2c(c1)N(S(=O)(=O)c1cccc(C3CC3)c1)C[C@H](CC1(C(=O)O)CC1)O2)C(F)(F)F [Example 14B, (S)-1-((4-((3-cyclopropylphenyl)sulfonyl)-6-((((1,1,1-trifluoro-2-methylpropan-2-yl)oxy)carbonyl)amino)-3,4-dihydro-2H-benzo[b][1,4]oxazin-2-yl)methyl)cyclopropanecarboxy-lic acid]",17.5
13,"CC(C)(OC(=O)Nc1ccc2c(c1)N(S(=O)(=O)c1ccc(F)c(C(F)(F)F)c1)C[C@H]([C@H](CC(=O)O)C1CC1)O2)C(F)(F)F (single isomer, unassigned) [Example 21C, (S or R)-3-cyclopropyl-3-((S)-4-((4-fluoro-3-(trifluoromethyl)phenyl)sulfonyl)-6-((((1,1,1-trifluoro-2-methylpropan-2-yl)oxy)carbonyl)amino)-3,4-dihydro-2H-benzo[b][1,4]oxazin-2-yl)propanoic acid]",30.4

# Continued by falling IC50, values first:
row,IC50 [nM],Compound
1,32.4,"Cc1cncc(S(=O)(=O)N2C[C@H](CCC(=O)O)Oc3ccc(NC(=O)OC(C)(C)C(F)(F)F)cc32)c1 [Example 6BX, 3-[(2S)-4-[(5-methylpyridin-3-yl)sulfonyl]-6-{[(2,2,2-trifluoro-1,1-dimethylethoxy)carbonyl]amino}-3,4-dihydro-2H-1,4-benzoxazin-2-yl]propanoic acid]"
2,24.1,"COc1cc(S(=O)(=O)N2C[C@H](CCC(=O)O)Oc3ccc(NC(=O)OC(C)(C)C(F)(F)F)cc32)ccn1 [Example 6AV, (S)-4-((2-(2-carboxyethyl)-6-((((1,1,1-trifluoro-2-methylpropan-2-yl)oxy)carbonyl)amino)-2H-benzo[b][1,4]oxazin-4(3H)-yl)sulfonyl)-2-methoxypyridine]"
3,11.5,"C[C@H](C[C@H]1CN(S(=O)(=O)c2ccnc(C3CC3)c2)c2cc(NC(=O)OC(C)(C)C(F)(F)F)ccc2O1)C(=O)O (single isomer, unassigned) [Example 6DB, (R or S)-3-((S)-4-((2-cyclopropylpyridin-4-yl)sulfonyl)-6-((((1,1,1-trifluoro-2-methylpropan-2-yl)oxy)carbonyl)amino)-3,4-dihydro-2H-benzo[b][1,4]oxazin-2-yl)-2-methylpropanoic acid]"
4,10.9,"CC(C)(OC(=O)Nc1ccc2c(c1)N(S(=O)(=O)c1cncc(Br)c1)C[C@H](CCC(=O)O)O2)C(F)(F)F [Example 6BU, 3-[(2S)-4-[(5-bromopyridin-3-yl)sulfonyl]-6-{[(2,2,2-trifluoro-1,1-dimethylethoxy)carbonyl]amino}-3,4-dihydro-2H-1,4-benzoxazin-2-yl]propanoic acid]"
5,9.92,"Cc1nn(C(F)F)cc1S(=O)(=O)N1C[C@H](CCC(=O)O)Oc2ccc(NC(=O)OC(C)(C)C(F)(F)F)cc21 [Example 6AX, (S)-4-((2-(2-carboxyethyl)-6-((((1,1,1-trifluoro-2-methylpropan-2-yl)oxy)carbonyl)amino)-2H-benzo[b][1,4]oxazin-4(3H)-yl)sulfonyl)-1-(difluoromethyl)-3-methyl-1H-pyrazole]"
6,9,"CCOc1nn(C(F)F)cc1S(=O)(=O)N1C[C@H](CCC(=O)O)Oc2ccc(NC(=O)OC(C)(C)C(F)(F)F)cc21 [Example 6AB, (S)-3-(4-((1-(difluoromethyl)-3-ethoxy-1H-pyrazol-4-yl)sulfonyl)-6-((((1,1,1-trifluoro-2-methylpropan-2-yl)oxy)carbonyl)amino)-3,4-dihydro-2H-benzo[b][1,4]oxazin-2-yl)propanoic acid]"
7,8.71,"CC(C)(OC(=O)Nc1ccc2c(c1)N(S(=O)(=O)c1ccc(F)c(C(F)(F)F)c1)C[C@H]([C@@H]1C[C@H]1C(=O)O)O2)C(F)(F)F [Example 22C, (1R,2R)-2-((S)-4-((4-fluoro-3-(trifluoromethyl)phenyl)sulfonyl)-6-((((1,1,1-trifluoro-2-methylpropan-2-yl)oxy)carbonyl)amino)-3,4-dihydro-2H-benzo[b][1,4]oxazin-2-yl)cyclopropanecarboxylic acid]"
8,4,"CC(C)(OC(=O)Nc1ccc2c(c1)N(S(=O)(=O)c1cccc(OC(F)F)c1)C[C@H](CCC(=O)O)O2)C(F)(F)F [Example 6T, (S)-3-(4-((3-(difluoromethoxy)phenyl)sulfonyl)-6-((((1,1,1-trifluoro-2-methylpropan-2-yl)oxy)carbonyl)amino)-3,4-dihydro-2H-benzo[b][1,4]oxazin-2-yl)propanoic acid]"

# From US9783511B2, “Carbamate benzoxazine propionic acids and acid derivatives for modulation of RORgamma activity and the treatment of disease” (Merck Sharp & Dohme Corp., priority 2013, dated 2017)
